Assay results as given in US4221909A, “P-Acetamidobenzoic acid salts of 9-(hydroxyalkyl) purines” (Sloan-Kettering Institute for Cancer Research, priority 1978, dated 1980).
“Also recorded” adds a separate entry of the source.

Key:
[1] = system: Influenza A USSR/90(H1 N1); assay: Anti-Influenza Activity (Hemadsorption Assay), Influenza A USSR/90; format: cell-based; details: for inhibition: Influenza A virus, read-out: % Inhibition of Hemadsorption Foci
Experimental: (§1) Upon infection of a monolayer of tissue culture cells by influenza virus, the cell surface is altered so that guinea pig erythrocytes can be adsorbed to the cell surface. The number of foci of adsorbed cells (hemadsorption foci forming units HAFFU) is a quantitative measure of infectivity. The method is as follows.
The monolayers were subcultured in the following manner: The medium was poured off, and the monolayer washed two times with approximately 50 ml per wash of calcium and magnesium free phosphate buffered saline (PBS), (GIBCO #419) at a pH of 7.2. One ml of trypsin-EDTA solution (GIBCO #530L) containing 0.5 g trypsin (1:250) and 2.0 g EDTA/liter of Modified Puck's Saline A was added at 37° C. to each flask and dispersed over the monolayer with gentle shaking. The flasks were then placed in an incubator at 37° C. for approximately 3-5 minutes depending on the time required to dislodge the cells. Occasional shaking was required. Ten ml of planting medium was added to each flask and the cells dispersed by aspirating and expelling the suspension from the pipette. The contents of a series of flasks were pooled and the cells in the suspension were diluted with planting medium to 7-8.5×10^4 cells/ml. The planting medium consisted of the following composition: Minimum Essential Medium Eagles (MEM) with Earle's salts and HEPES buffer (GIBCO #236) supplemented by adding the following substances as specified to 87 ml of MEM:
The following day the medium was removed and replaced with fresh planting medium. The monolayers were used for experimentation when they reached a condition in which they were almost confluent (approximately 3-4 days).
(§2) When the Linbro tray HeLa cell cultures were ready for experimentation (see cells), the medium was decanted and 1 ml of maintenance medium (MEM with FCS reduced to 3%) containing the compound being tested at a given concentration was added to 4 replicate cultures within a tray.
(§3) A series of different drug concentrations ranging from 2.3 to 150 μg/ml were used. Maintenance medium alone was used for control cultures. After the administration of drug and control medium, 0.1 ml of the diluted viral suspension was added to experimental groups and infected control cultures. Saline alone was added to non-infected control cultures. The Linbro trays were then incubated at 37° C. for 18 hours, after which media in all groups was aspirated. Each culture was washed once with PBS. The saline was aspirated and 0.5 ml of a 0.4% v/v guinea pig red blood cell suspension in PBS was added to each culture well. The cultures remained at room temperature for 30 minutes after which the medium was decanted and culture washed […] with PBS to remove all but the specifically bound red cells. After the third wash, maintenance medium was added to all cultures.
(§4) A Howard Micrometer eyepiece (C8385) was inserted within the ocular of a Nikon inverted phase contrast microscope. Each culture was scanned with a 4× low paper objective and direct counts of hemadsorbed red cells were counted using the eyepiece grid as a field marker. Partial or complete fields were counted per experimental group depending on the resulting number and density of hemadsorbed cells in the infected control cultures. Magnification of 60× or 150× were chosen to obtain the best conditions for enumerating the hemadsorbed cells. Field factors were calculated for counting hemadsorption at 60× and 150×. At 60× magnification, total field count was calculated using a multiplication factor of 55.5. At 150× magnification the multiplication factor was 273. The multiplication factors of 55.5 and 273 represent the total number of fields at 60× and 150× magnifications, respectively. The number of fields counted ranged from 3 to 5 per well with 3 to 4 wells per treatment group employed (see raw data tables in results section for number of fields examined). Means and standard errors were calculated and the data was evaluated using student's t-test analysis.

[2] = system: Influenza A Swine 1976 (Hlsw -N1); assay: Inhibition of influenza virus replication, Swine 1976; format: cell-based
Experimental: as §1, §2, §3, §4

[3] = system: spleen cells; assay: In vivo treatment of mice: effect on in vitro stimulation of spleen cell proliferation by Con A; parameters: species or system mice (Balb/C); details: oral, twice daily for 1 day; for response of spleen cells to Con A versus placebo: Con A 10 μg/ml; for subsequent response of the spleen cells, in vitro, to Con A stimulation: suboptimal Con A 5 μg/ml
Experimental: The purpose of this study was to determine the effects of in vivo treatment of mice with the compounds NPT 15392 and 15410 on the subsequent activity of spleen cells isolated from these animals and evaluated in vitro for their proliferative response to the mitogen, Concanavalin A (Con A).
Nine male Balb/C mice, 8-9 weeks old, weighing 18-20 gms were divided into three groups. One group was treated twice daily (for 1 day), in the morning and afternoon, with an oral dose of NPT 15392 at 10 mg/kg. The second group was similarly treated with NPT 15410 at 20 mg/kg. A third group, dosed with saline served as a placebo control.
The following day, each group was sacrificed and the spleens removed and pooled. The spleens were minced and the cells washed in RPMI-1640 medium (Grand Island Biologicals) supplemental with 2 mm glutamine and antibiotics. The cell concentration of each preparation was determined by a Coulter counter and adjusted to 5×10^6 cells/ml with RPMI medium.
Microtiter assays were carried out in 0.2 ml incubations, containing 5×10^5 cells and Con A or Con A and compounds at the indicated concentrations. All assays were performed with 6 replicates and compared with a blank assay containing only cells. The assay plates were incubated at 37° in 5% CO2 for 4 days. During the final 18-20 hours of incubation, 0.5 ml of ^3 HTdR (10 μCi/ml, 6 Ci /m mole) were added to each culture. The cultures were harvested with a multiple automatic sample harvester (MASH) unit and the incorporated ^3 HTdR determined with a Beckman LS 8000 liquid scintillation counter, as a measure of cell proliferation. The results are tabulated as the ratio of the activity in the Con A or Con A and compound treated cultures to the blank cultures.

[4] = system: influenza virus; assay: Anti-influenza activity (summary); format: cell-based; details: for number of different strains of influenza virus inhibited: concentrations ranging from 1-150 μg/ml
[5] = system: immune response; assay: Immunomodulation / immune response potentiation (summary); format: cell-based; details: for potentiation of the immune response: three test systems of Table 4; for DIP.PAcBA potentiation of Immunpotentiation: DIP.PAcBA salt vs parent compound
Source text: The following three assay procedures are used to evaluate the ability of the test substances to modulate the activity of several classes of cells in the immune system. In these systems it is possible to identify both immunopotentiating activity (evidence by an enhancement of the parameter examined) as well as immunosuppressant activity (evidenced by an inhibition of the parameter examined).
Table 4 above presents the results of an evaluation of a number of these subject compounds as potentiators of the immune response. Three different test systems were used. The first involves a measure of the ability of the test compound to enhance the ability of mouse lymphocytes to proliferate in response to a plant mitogen (Con A). The second involves measuring the ability of the test compounds to enhance human lymphocyte proliferation in response to a second plant mitogen (PHA). The third system measures the ability of these test substances to enhance macrophage proliferation in response to a natural lymphokine (MMF, Macrophage Mitogenic Factor).

[6] = system: human peripheral blood lymphocytes; assay: Mitogen Induced (PHA) Human Lymphocyte Proliferation; format: cell-based

| Compound | inhibition ([1]; Conc. 10-100 μg/ml) [%] | % Inhibition ([2]; 10-100 μg/ml) [%] | % Inhibition ([2]; >100 μg/ml) [%] | response of spleen cells to Con A versus placebo [3] | subsequent response of the spleen cells, in vitro, to Con A stimulation [3] | anti-influenza activity by themselves [4] | number of different strains of influenza virus inhibited [4] | potentiation of the immune response [5] | Maximum Percent Change, Mitogen Induced (PHA) Human Lymph. Prolif. ([6]; 1.0-10) [%] | Maximum Percent Change, Mitogen Induced (PHA) Human Lymph. Prolif. ([6]; .01-1.0) | % Inhibition of Hemadsorption Foci ([1]; Conc. 10-100 μg/ml) [%] | % Inhibition of Hemadsorption Foci ([1]; Conc. >100 μg/ml) [%] | DIP.PAcBA potentiation of Anti-Influenza activity [4] | DIP.PAcBA potentiation of Immunpotentiation [5] | further results |
| --- | --- | --- | --- | --- | --- | --- | --- | --- | --- | --- | --- | --- | --- | --- | --- |
| CCCCCC[C@H]([C@H](C)O)n1cnc2c(=O)[nH]cnc21 (relative stereo) [NPT 15392, Erythro-9-(2-Hydroxy-3-Nonyl)Hypoxanthine] | 100 | > 70 | > 70 | No significant differences | increases the subsequent response of the spleen cells | significant anti-influenza activity | at least 4 different strains | Significant potentiation |  |  |  |  |  |  | % Inhibition of Hemadsorption Foci ([1]; Conc. <10 μg/ml, listed as 15392): 86%; % Inhibition ([2]; 0.1-1.0 μg/ml, listed as 15392): 30-50% |
| CCCCCCC(CO)n1cnc2c(=O)[nH]cnc21 (stereo not drawn) [NPT 15417] | 58 | > 70 |  |  |  | significant anti-influenza activity | at least 4 different strains |  | 0 | 0% |  |  |  |  | Maximum Percent Change, Mitogen Induced (PHA) Human Lymph. Prolif. ([6]; 10-100): -50% |
| CCCCCC[C@H]([C@H](C)O)n1cnc2c(=O)[nH]cnc21 (relative stereo) [NPT 15410] |  |  |  | No significant differences | increases the subsequent response of the spleen cells |  |  | Significant potentiation | 60 | 30-50% | 96 | 96 | does not potentiate the anti-influenza activity; also recorded: Both are equally active | Yes | % Inhibition of Hemadsorption Foci ([1]; Conc. <10 μg/ml, listed as 15410): 58%; % Inhibition ([2]; 0.1-1.0 μg/ml, listed as 15410): 50-70%; % Inhibition ([2]; 1.0-10 μg/ml): 30-50% |
| CCCCCCC(CO)n1cnc2c(=O)[nH]cnc21 (stereo not drawn) [NPT 15418] |  |  | > 70 |  |  |  |  | Significant potentiation |  |  | 46 | 52 | does potentiate the anti-influenza activity and Yes | Yes | % Inhibition of Hemadsorption Foci ([1]; Conc. <10 μg/ml): 16% |
